The target of data set [1] is T1, human liver GK (GST-hLGK1) (Homo sapiens, UniProt P35557).
T1 construct: with a BamHI site added to immediately before the initiation codon; made in house; host or cells: Escherichia coli BL21 (Stratagene), plasmid pGEX6P-2/hLGK1
T1 sequence (P35557 1-464 isoform P35557-3): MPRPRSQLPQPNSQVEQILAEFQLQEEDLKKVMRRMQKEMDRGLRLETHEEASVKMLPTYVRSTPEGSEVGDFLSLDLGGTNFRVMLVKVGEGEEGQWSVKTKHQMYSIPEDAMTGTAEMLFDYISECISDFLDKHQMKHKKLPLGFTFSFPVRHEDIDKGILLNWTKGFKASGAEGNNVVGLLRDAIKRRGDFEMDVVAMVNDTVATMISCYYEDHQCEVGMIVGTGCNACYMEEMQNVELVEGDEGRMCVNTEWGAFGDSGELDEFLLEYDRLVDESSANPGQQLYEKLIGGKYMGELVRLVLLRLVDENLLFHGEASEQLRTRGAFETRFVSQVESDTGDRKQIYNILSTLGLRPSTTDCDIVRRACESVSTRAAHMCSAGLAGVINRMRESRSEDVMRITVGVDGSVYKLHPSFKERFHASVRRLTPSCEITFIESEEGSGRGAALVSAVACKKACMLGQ
In words: Determination of GK activity value (Mant-ATP to Mant-ADP conversion, capillary electrophoresis). It counts as biochemical. The conditions noted are these: reaction started with 25 mM D-glucose solution, 37° C., 60 min, concentration at midpoint between maximum activity value and control group activity value. As to the method:
Plasmid DNA to be used for the expression of a protein (GST-hLGK1) containing GST (Glutathione S-transferase) added to the amino terminal of human liver GK in Escherichia coli was prepared as follows.
First, PCR was performed using human liver cDNA (Marathon Ready cDNA, Clontech Laboratories, Inc.) as a template and two kinds of synthetic DNAs (5′-[…]-3′ (SEQ ID NO: 1) and 5′-[…]-3′ (SEQ ID NO: 2)), and the obtained DNA fragment was closed using a TOPO TA Cloning Kit (Invitrogen Corporation). PCR was performed using the obtained plasmid DNA as a template and a synthetic DNA (5′-[…] CAGAG-3′ (SEQ ID NO: 3)) with a BamHI site added to immediately before the initiation codon, and a synthetic DNA (5′-[…]-3′ (SEQ ID NO: 4)) with an EcoRI site added to immediately after the stop codon. The obtained DNA fragment was subcloned to pGEX6P-2 (Amersham Biosciences K.K.) cleaved with BamHI and EcoRI to give a plasmid (pGEX6P-2/hLGK1) for expression of human liver GK.
BL21 strain (Stratagene) transformed with pGEX6P-2/hLGK1 obtained in (1) was cultured with shaking at 37° C. for 14 hr in a 200 ml Erlenmeyer flask containing 50 ml of 100 μg/ml ampicillin-containing LB medium. The culture medium (25 ml) was diluted with 225 ml of 100 μg/ml ampicillin-containing LB medium, and further cultured with shaking at 37° C. for 1 hr in a 1 L Erlenmeyer flask. After culture, the Erlenmeyer flask was cooled on ice, 125 μL of 100 mM isopropyl-thio-β-D-galactopyranoside (IPTG) was added (final concentration 50 μM), and cultured at 17° C. for 20 hr. The culture medium was centrifuged, and the obtained fungus was disrupted by ultrasonication. The object protein (GST-hLGK1) was purified from the supernatant using Glutathione Sepharose 4B (Amersham Biosciences K.K.).
A solution (5 μL) of test compound in 50% dimethyl sulfoxide was added to each well of 384 well black plate (Nalge Nunc International K.K.). Then, a solution (35 μL) obtained by diluting GST-hLGK1 obtained in (2) with measurement buffer (containing 50 mM HEPES (pH 7.4), 200 mM KCl, 5 mM MgCl2, 2.5 mM DTT and 50 μM 2′-(or-3′)-O—(N-methylanthraniloyl)adenosine 5′-triphosphate (Mant-ATP) (Jena Bioscience GmbH)) to 6 μg/mL was added to each well.
Each well was stood at 37° C. for 10 min, and 25 mM D-glucose solution (10 μL) was added to start the reaction.
Each well after the reaction was stood at 37° C. for 60 min, and the reaction was quenched by adding 25 μL of a quenching solution (containing 200 mM HEPES (pH 7.4), 20 mM MgCl2, 200 mM EDTA, 0.03% Triton-X 100, 0.3% Coating 3 reagent (Caliper Life Sciences, Inc.)).
2′-(or -3′)-O—(N-methylanthraniloyl)adenosine 5′-triphosphate (Mant-ATP, substrate) and Mant-ADP (reaction resultant product) were separated from each well after the reaction by a microchip type capillary electrophoresis apparatus 250 HTS (Caliper Life Sciences, Inc.). The reaction rate [(reaction resultant product peak height)/(reaction resultant product peak height+substrate peak height)×100(%)] was calculated from the ratio of the substrate peak height and reaction resultant product peak height obtained by fluorescence detection (excitation wavelength 355 nm, measurement wavelength 460 nm) and used as the index of GK activity.
3.5 As a control group, the reaction rate was calculated in the same manner as above except that “solution in 50% dimethyl sulfoxide (without test compound)” was used instead of “solution of test compound in 50% dimethyl sulfoxide”.
A concentration dependency curve of the test compound was drawn with the percentage obtained by dividing the reaction rate of the well added with the test compound (test compound addition group) by the reaction rate of the control group was taken as the GK activity value of the test compound, and the concentration of the test compound at the midpoint between the maximum activity value of the test compound addition group and the control group activity value is shown as EC50 value.

pEC50: −log10 of the molar value.

What is called melting point is the temperature, or range, at which the solid turns liquid. A word on the pEC50: it is the negative decadic logarithm of the EC50, by convention in mol/L. Compound `COCCNC(=O)CC1CN=C(c2cc3cc(Oc4ccc(S(C)(=O)=O)nc4)ccc3[nH]2)S1` (centres unmarked) [Example 57, N-(2-Methoxyethyl)-2-[2-(5-{[6-(methylsulfonyl)pyridin-3-yl]oxy}-1H-indol-2-yl)-4,5-dihydro-1,3-thiazol-5-yl]acetamide] came in with a melting point of 155 to 156 °C. In addition, the pEC50 in data set [1] is 6.80.

`CCc1cc(Oc2ccc(S(C)(=O)=O)nc2)cc2cc(C3=NCC(CC(=O)N4CC[S+]([O-])CC4)S3)[nH]c12` (centres unmarked) [Example 82, 7-Ethyl-5-{[6-(methylsulfonyl)pyridin-3-yl]oxy}-2-{5-[2-(1-oxidothiomorpholin-4-yl)-2-oxoethyl]-4,5-dihydro-1,3-thiazol-2-yl}-1H-indole] came in with a melting point of 194 to 196 °C. Besides, the pEC50 in data set [1] was 7.74.

`CC(C)(O)CC1CN=C(c2cc3cc(Oc4ccc(S(C)(=O)=O)cc4)cc(OC4CCOCC4)c3[nH]2)S1` (centres unmarked) [Example 3, 2-Methyl-1-(2-{5-[4-(methylsulfonyl)phenoxy]-7-(tetrahydro-2H-pyran-4-yloxy)-1H-indol-2-yl}-4,5-dihydro-1,3-thiazol-5-yl)propan-2-ol]: the melting point was in the range of 163 to 164 °C. The compound further showed a pEC50 in data set [1] of 7.82.

Compound `CCc1cc(Oc2ccc(S(C)(=O)=O)nc2)cc2cc(C3=NCC(CC(N)=O)S3)[nH]c12` (centres unmarked) [Example 61, 2-[2-(7-Ethyl-5-{[6-(methylsulfonyl)pyridin-3-yl]oxy}-1H-indol-2-yl)-4,5-dihydro-1,3-thiazol-5-yl]acetamide] came in with a melting point of 190 to 191 °C. For the same compound, the pEC50 in data set [1] was 7.80.

The record behind these values is patent publication US8557805B2, “Fused ring compound and use thereof” (Takeda Pharmaceutical Company Limited, priority 2008, dated 2013).
